# Assay results published in article PMC11637483, “Dissecting caspase-2-mediated cell death: from intrinsic PIDDosome activation to chemical modulation” (Protein & Cell, 2024).
# Tested on: HeLa-CASP2/CASP3/GSDMD TKO + CASP2 cells (human caspase-2)
# Test: ATP-based cell viability (CellTiter-Glo) in HeLa TKO cells with exogenous caspase-2 expression
# Conditions: immunoblotting, HUHS015-treated cells
# Excerpt: Specific chemical compounds are powerful tools for dissecting target-related signaling mechanisms in biological contexts ([Beck et al., 2022]; [Zhang et al., 2012]). Prompted by this notion and possibly to identify a compound that could activate the PIDDosome, we designed a cell death-based high-throughput chemical screen in HeLa cells, in which a triple knockout of CASP2, CASP3, and GSDMD were constructed. CASP3 and GSDMD deficiency served as the background to minimize compound-induced nonspecific cytotoxicity and undesired pyroptosis. Using the triple knockout cells as the control, additional expression of exogenous caspase-2 allows the identification of compounds that can specifically activate the caspase-2-BID pathway and trigger apoptosis through caspase-7. […] In accordance with the apoptosis induction, HUHS015 induced evident processing of caspase-2 expressed in the triple-knockout cells (Fig. 3B). This indicated activation of caspase-2 as the protease-deficient C320A mutant of caspase-2 was not processed upon HUHS015 treatment (Fig. 3B). Accordingly, expression of caspase-2 C320A rendered no cell death in response to HUHS015 treatment (Fig. 3B).
# Figure 3. Chemical screen identifies HUHS015 as an agonist of human caspase-2. (A) Screen raw data and selectivity analyses of the compound plate containing HUHS015. The ATP-based viability data of both HeLa-CASP2^−/−CASP3^−/−GSDMD^−/− (TKO) (control group) and TKO cells with exogenous caspase-2 expression (experimental group) are shown. The ratios of the cell viability between the two groups are calculated with 3 as a cutoff for positive compound hit selection. (B) HUHS015-induced cell death depends on caspase-2 activity. HeLa TKO cells expressing WT or enzymatically deficient C320A mutant of caspase-2 were treated with HUHS015. ATP-based cell viability and immunoblotting of caspase-2 cleavage are shown. (C and F) The structures and potencies of HUHS15 (C) and its optimized derivative HUHS15-036 (F). HeLa TKO cells with exogenous caspase-2 expression were treated with titrated compounds. The ATP-based viability data were plotted with compound concentration for EC50 calculation. (D) BID is required for HUHS15-induced caspase-2-dependent cell death. […] Processing of caspase-2, -3, and -7 was analyzed by immunoblotting. […] ATP-based cell viability in panels (B and D) is expressed as mean ± s.d. from three technical replicates. […]
# Cell viability was measured by the ATP assay using the CellTiter-Glo® Luminescent Cell Viability Assay kit (Promega).
# Drug-related Screening Library (25 × 384-well plate, more than 7,000 compounds) was used for the chemical screen in the TKO HeLa cells rescued with exogenous caspase-2 expression. […] After treatment for 12 h, the cell viability was measured by the ATP assay. […]
substance,measurement,value
zVAD [reference compound],block of HUHS015-induced caspase-2 processing,not blocked
